Assay results reported in paper PMC9401487 (Clinical Cancer Research, 2021).

System: patients with advanced solid tumors
Test: Phase I safety and tolerability
Type: in vivo, human
[1] = Cohort 7 (N=6), co-dosing 40 mg QD + carboplatin days 1 and 2
[2] = Cohort 7: 40 mg QD days 1–2 + carboplatin AUC5 day 1, 6 patients
[3] = all 36 patients, ceralasertib + carboplatin

Compound: C[C@@H]1COCCN1c1cc(C2([S@](C)(=N)=O)CC2)nc(-c2cc[nH]c3nccc2-3)n1 [ceralasertib]
- TEAE Constipation, Grade 1–2 [1]: 3 (50) patients, n (%)
- TEAE Constipation, Grade ≥3 [1]: 0 patients, n (%)
- TEAE Contusion, Grade 1–2 [1]: 1 (17) patients, n (%)
- TEAE Contusion, Grade ≥3 [1]: 0 patients, n (%)
- TEAE Cough, Grade 1–2 [1]: 0 patients, n (%)
- TEAE Cough, Grade ≥3 [1]: 0 patients, n (%)
- TEAE Decreased appetite, Grade 1–2 [1]: 3 (50) patients, n (%)
- TEAE Decreased appetite, Grade ≥3 [1]: 0 patients, n (%)
- TEAE Diarrhea, Grade 1–2 [1]: 1 (17) patients, n (%)
- TEAE Diarrhea, Grade ≥3 [1]: 0 patients, n (%)
- TEAE Dizziness, Grade 1–2 [1]: 0 patients, n (%)
- TEAE Dizziness, Grade ≥3 [1]: 0 patients, n (%)
- TEAE Dyspnea, Grade 1–2 [1]: 0 patients, n (%)
- TEAE Dyspnea, Grade ≥3 [1]: 0 patients, n (%)
- TEAE Fatigue, Grade 1–2 [1]: 4 (67) patients, n (%)
- TEAE Fatigue, Grade ≥3 [1]: 0 patients, n (%)
- TEAE Hypocalcemia, Grade 1–2 [1]: 1 (17) patients, n (%)
- TEAE Hypocalcemia, Grade ≥3 [1]: 0 patients, n (%)
- TEAE Insomnia, Grade 1–2 [1]: 0 patients, n (%)
- TEAE Insomnia, Grade ≥3 [1]: 0 patients, n (%)
- TEAE Lower respiratory tract infection, Grade 1–2 [1]: 0 patients, n (%)
- TEAE Lower respiratory tract infection, Grade ≥3 [1]: 0 patients, n (%)
- TEAE Nausea, Grade 1–2 [1]: 5 (83) patients, n (%)
- TEAE Nausea, Grade ≥3 [1]: 0 patients, n (%)
- TEAE Neutropenia, Grade 1–2 [1]: 0 patients, n (%)
- TEAE Neutropenia, Grade ≥3 [1]: 0 patients, n (%)
- TEAE Neutrophil count decreased, Grade 1–2 [1]: 0 patients, n (%)
- TEAE Neutrophil count decreased, Grade ≥3 [1]: 1 (17) patients, n (%)
- TEAE Platelet count decreased, Grade 1–2 [1]: 2 (33) patients, n (%)
- TEAE Platelet count decreased, Grade ≥3 [1]: 1 (17) patients, n (%)
- TEAE Pyrexia, Grade 1–2 [1]: 1 (17) patients, n (%)
- TEAE Pyrexia, Grade ≥3 [1]: 0 patients, n (%)
- TEAE Thrombocytopenia, Grade 1–2 [1]: 0 patients, n (%)
- TEAE Thrombocytopenia, Grade ≥3 [1]: 0 patients, n (%)
- TEAE Upper respiratory tract infection, Grade 1–2 [1]: 1 (17) patients, n (%)
- TEAE Upper respiratory tract infection, Grade ≥3 [1]: 0 patients, n (%)
- TEAE Vomiting, Grade 1–2 [1]: 0 patients, n (%)
- TEAE Vomiting, Grade ≥3 [1]: 1 (17) patients, n (%)
- TEAE White blood cell count decreased, Grade 1–2 [1]: 0 patients, n (%)
- TEAE White blood cell count decreased, Grade ≥3 [1]: 0 patients, n (%)
- Number of DLTs [2]: one DLT of grade 4 platelet count decreased
- SRC decision (tolerability) [2]: declared safe and well tolerated
- Patients who discontinued treatment because of an AE (N=36): 14%
- TEAE Abdominal pain, Grade 1–2 (Total (N=36)): 5 (14) patients, n (%)
- TEAE Abdominal pain, Grade ≥3 (Total (N=36)): 1 (3) patients, n (%)
- TEAE Alanine aminotransferase increased, Grade 1–2 (Total (N=36)): 3 (8) patients, n (%)
- TEAE Alanine aminotransferase increased, Grade ≥3 (Total (N=36)): 1 (3) patients, n (%)
- TEAE Anemia, Grade 1–2 (Total (N=36)): 11 (31) patients, n (%)
- TEAE Anemia, Grade ≥3 (Total (N=36)): 14 (39) patients, n (%)
- TEAE Any AE, Grade 1–2 (Total (N=36)): 9 (25) patients, n (%)
- TEAE Any AE, Grade ≥3 (Total (N=36)): 27 (75) patients, n (%)
- TEAE Arthralgia, Grade 1–2 (Total (N=36)): 4 (11) patients, n (%)
- TEAE Arthralgia, Grade ≥3 (Total (N=36)): 0 patients, n (%)
- TEAE Aspartate aminotransferase increased, Grade 1–2 (Total (N=36)): 3 (8) patients, n (%)
- TEAE Aspartate aminotransferase increased, Grade ≥3 (Total (N=36)): 1 (3) patients, n (%)
- TEAE Constipation, Grade 1–2 (Total (N=36)): 10 (28) patients, n (%)
- TEAE Constipation, Grade ≥3 (Total (N=36)): 0 patients, n (%)
- TEAE Contusion, Grade 1–2 (Total (N=36)): 4 (11) patients, n (%)
- TEAE Contusion, Grade ≥3 (Total (N=36)): 0 patients, n (%)
- TEAE Cough, Grade 1–2 (Total (N=36)): 5 (14) patients, n (%)
- TEAE Cough, Grade ≥3 (Total (N=36)): 0 patients, n (%)
- TEAE Decreased appetite, Grade 1–2 (Total (N=36)): 8 (22) patients, n (%)
- TEAE Decreased appetite, Grade ≥3 (Total (N=36)): 0 patients, n (%)
- TEAE Diarrhea, Grade 1–2 (Total (N=36)): 6 (17) patients, n (%)
- TEAE Diarrhea, Grade ≥3 (Total (N=36)): 0 patients, n (%)
- TEAE Dizziness, Grade 1–2 (Total (N=36)): 4 (11) patients, n (%)
- TEAE Dizziness, Grade ≥3 (Total (N=36)): 0 patients, n (%)
- TEAE Dyspnea, Grade 1–2 (Total (N=36)): 5 (14) patients, n (%)
- TEAE Dyspnea, Grade ≥3 (Total (N=36)): 0 patients, n (%)
- TEAE Fatigue, Grade 1–2 (Total (N=36)): 16 (44) patients, n (%)
- TEAE Fatigue, Grade ≥3 (Total (N=36)): 1 (3) patients, n (%)
- TEAE Hypocalcemia, Grade 1–2 (Total (N=36)): 4 (11) patients, n (%)
- TEAE Hypocalcemia, Grade ≥3 (Total (N=36)): 0 patients, n (%)
- TEAE Insomnia, Grade 1–2 (Total (N=36)): 5 (14) patients, n (%)
- TEAE Insomnia, Grade ≥3 (Total (N=36)): 0 patients, n (%)
- TEAE Lower respiratory tract infection, Grade 1–2 (Total (N=36)): 4 (11) patients, n (%)
- TEAE Lower respiratory tract infection, Grade ≥3 (Total (N=36)): 1 (3) patients, n (%)
- TEAE Nausea, Grade 1–2 (Total (N=36)): 20 (56) patients, n (%)
- TEAE Nausea, Grade ≥3 (Total (N=36)): 1 (3) patients, n (%)
- TEAE Neutropenia, Grade 1–2 (Total (N=36)): 4 (11) patients, n (%)
- TEAE Neutropenia, Grade ≥3 (Total (N=36)): 9 (25) patients, n (%)
- TEAE Neutrophil count decreased, Grade 1–2 (Total (N=36)): 0 patients, n (%)
- TEAE Neutrophil count decreased, Grade ≥3 (Total (N=36)): 4 (11) patients, n (%)
- TEAE Platelet count decreased, Grade 1–2 (Total (N=36)): 4 (11) patients, n (%)
- TEAE Platelet count decreased, Grade ≥3 (Total (N=36)): 2 (6) patients, n (%)
- TEAE Pyrexia, Grade 1–2 (Total (N=36)): 9 (25) patients, n (%)
- TEAE Pyrexia, Grade ≥3 (Total (N=36)): 0 patients, n (%)
- TEAE Thrombocytopenia, Grade 1–2 (Total (N=36)): 12 (33) patients, n (%)
- TEAE Thrombocytopenia, Grade ≥3 (Total (N=36)): 13 (36) patients, n (%)
- TEAE Upper respiratory tract infection, Grade 1–2 (Total (N=36)): 4 (11) patients, n (%)
- TEAE Upper respiratory tract infection, Grade ≥3 (Total (N=36)): 0 patients, n (%)
- TEAE Vomiting, Grade 1–2 (Total (N=36)): 7 (19) patients, n (%)
- TEAE Vomiting, Grade ≥3 (Total (N=36)): 2 (6) patients, n (%)
- TEAE White blood cell count decreased, Grade 1–2 (Total (N=36)): 0 patients, n (%)
- TEAE White blood cell count decreased, Grade ≥3 (Total (N=36)): 5 (14) patients, n (%)
- TEAE anemia, any grade, patients [3]: 69.4%
- TEAE fatigue, any grade, patients [3]: 47%
- TEAE grade ≥3 anemia, patients [3]: 39%
- TEAE grade ≥3 neutropenia, patients [3]: 25%
- TEAE grade ≥3 thrombocytopenia, patients [3]: 36%
- TEAE nausea, any grade, patients [3]: 58%
- TEAE neutropenia, any grade, patients [3]: 36%
- TEAE thrombocytopenia, any grade, patients [3]: 69.4%
- AEs with a fatal outcome (all cohorts): no AEs with a fatal outcome were reported
- Clinical chemistry laboratory variables, vital signs, ECG parameters (all cohorts): No clinically significant findings
- Patients with dose modifications (cycle 1 and beyond, N=36): 47%
- Patients with dose reductions (cycle 1 and beyond, N=36): 25%
- Patients with treatment interruptions (cycle 1 and beyond, N=36): 31%
- MTD dose schedule (concurrent) (days 1–2, with carboplatin AUC5, 21-day cycles): 40 mg once daily
- MTD dose schedule (sequential) (days 4–13, with carboplatin AUC5, 21-day cycles): 20 mg twice daily
- Patients who experienced ≥1 TEAE (safety set N=36): 36 patients
